Test system: MV-4-11 cells
Test: Gene expression microarray analysis (Affymetrix PrimeView) and GSEA
Type: cell-based, human
Parameters: RFU PODN (11730768_x_at) / Fold change /veh PODN (11730768_x_at) / RFU LINC00158 (11744669_a_at) / Fold change /veh LINC00158 (11744669_a_at) / RFU DUSP10 (11751237_a_at) / Fold change /veh DUSP10 (11751237_a_at) / RFU ID3 (11757404_x_at) / Fold change /veh ID3 (11757404_x_at) / RFU PLEKHG5 (11737974_s_at) / Fold change /veh PLEKHG5 (11737974_s_at) / RFU LRRC4B (11730491_at) / Fold change /veh LRRC4B (11730491_at) / RFU GIMAP4 (11747438_a_at) / Fold change /veh GIMAP4 (11747438_a_at) / RFU KRT8 (11758183_x_at) / Fold change /veh KRT8 (11758183_x_at) / RFU CNN1 (11734310_a_at) / Fold change /veh CNN1 (11734310_a_at) / RFU VPS37D (11726825_at) / Fold change /veh VPS37D (11726825_at) / RFU C10orf10 (11716522_x_at) / Fold change /veh C10orf10 (11716522_x_at) / RFU KIR2DL2 /// KIR2DL4 /// KIR2DL5A /// KIR2DL5B /// KIR2DS1 /// KIR2DS2 /// KIR2DS3 /// KIR2DS4 /// KIR3DL3 /// KIR3DL3 /// KIR3DS1 (11738374_at) / Fold change /veh KIR2DL2 /// KIR2DL4 /// KIR2DL5A /// KIR2DL5B /// KIR2DS1 /// KIR2DS2 /// KIR2DS3 /// KIR2DS4 /// KIR3DL3 /// KIR3DL3 /// KIR3DS1 (11738374_at) / RFU C1QL1 (11718748_at) / Fold change /veh C1QL1 (11718748_at) / RFU TMPRSS4 (11747572_a_at) / Fold change /veh TMPRSS4 (11747572_a_at) / RFU HAMP (11756126_x_at) / Fold change /veh HAMP (11756126_x_at) / RFU RNFT2 (11725882_a_at) / Fold change /veh RNFT2 (11725882_a_at) / RFU NR4A2 (11747474_a_at) / Fold change /veh NR4A2 (11747474_a_at) / RFU ABCC12 (11746883_a_at) / Fold change /veh ABCC12 (11746883_a_at) / RFU TMEM136 (11760407_x_at) / Fold change /veh TMEM136 (11760407_x_at) / RFU CLDN22 /// WWC2 (11732394_at) / Fold change /veh CLDN22 /// WWC2 (11732394_at) / RFU HLA-DPB1 (11760878_x_at) / Fold change /veh HLA-DPB1 (11760878_x_at) / RFU SPINT1 (11716480_a_at) / Fold change /veh SPINT1 (11716480_a_at) / RFU GAP43 (11754022_s_at) / Fold change /veh GAP43 (11754022_s_at) / RFU A4GNT (11735810_at) / Fold change /veh A4GNT (11735810_at) / RFU PRB3 (11715151_x_at) / Fold change /veh PRB3 (11715151_x_at) / RFU TUBB4B (11761932_at) / Fold change /veh TUBB4B (11761932_at) / RFU CAPN14 (11732068_a_at) / Fold change /veh CAPN14 (11732068_a_at) / RFU TMCC2 (11721928_a_at) / Fold change /veh TMCC2 (11721928_a_at) / RFU IRGQ (11745062_a_at) / Fold change /veh IRGQ (11745062_a_at) / RFU FAM174B (11720279_a_at) / Fold change /veh FAM174B (11720279_a_at) / RFU TMPRSS4 (11748680_a_at) / Fold change /veh TMPRSS4 (11748680_a_at) / RFU FAM212B (11763350_a_at) / Fold change /veh FAM212B (11763350_a_at) / RFU PLEKHG5 (11743358_a_at) / Fold change /veh PLEKHG5 (11743358_a_at) / RFU ZSCAN30 (11745921_a_at) / Fold change /veh ZSCAN30 (11745921_a_at) / RFU CMKLR1 (11741424_a_at) / Fold change /veh CMKLR1 (11741424_a_at) / RFU LOC101060620 /// MAPK8IP1 (11723275_at) / Fold change /veh LOC101060620 /// MAPK8IP1 (11723275_at) / RFU SPTSSB (11747773_x_at) / Fold change /veh SPTSSB (11747773_x_at) / RFU PRSS12 (11739890_at) / Fold change /veh PRSS12 (11739890_at) / RFU BIN1 (11741810_x_at) / Fold change /veh BIN1 (11741810_x_at) / RFU WNT11 (11732464_a_at) / Fold change /veh WNT11 (11732464_a_at) / RFU C10orf10 (11716521_a_at) / Fold change /veh C10orf10 (11716521_a_at) / RFU C5orf56 (11738089_at) / Fold change /veh C5orf56 (11738089_at) / RFU CYB561 (11721691_x_at) / Fold change /veh CYB561 (11721691_x_at) / RFU ANKRD19P (11752326_a_at) / Fold change /veh ANKRD19P (11752326_a_at) / RFU OR2T12 /// OR2T33 /// OR2T8 (11738714_s_at) / Fold change /veh OR2T12 /// OR2T33 /// OR2T8 (11738714_s_at) / RFU VCAN (11748164_a_at) / Fold change /veh VCAN (11748164_a_at) / RFU JSRP1 (11732532_at) / Fold change /veh JSRP1 (11732532_at) / RFU KRTAP10-11 (11738290_x_at) / Fold change /veh KRTAP10-11 (11738290_x_at) / RFU MYO3A (11730013_a_at) / Fold change /veh MYO3A (11730013_a_at) / RFU EBF3 (11725865_a_at) / Fold change /veh EBF3 (11725865_a_at) / RFU CAMK2N1 (11719241_x_at) / Fold change /veh CAMK2N1 (11719241_x_at) / RFU C5orf56 (11738088_a_at) / Fold change /veh C5orf56 (11738088_a_at) / RFU OLFML3 (11715873_a_at) / Fold change /veh OLFML3 (11715873_a_at) / RFU LOC100653217 /// NTM (11731650_a_at) / Fold change /veh LOC100653217 /// NTM (11731650_a_at) / RFU MAPK11 (11762145_a_at) / Fold change /veh MAPK11 (11762145_a_at) / RFU FIZ1 (11724087_x_at) / Fold change /veh FIZ1 (11724087_x_at) / RFU OASL (11726364_x_at) / Fold change /veh OASL (11726364_x_at) / RFU SOX15 (11748057_x_at) / Fold change /veh SOX15 (11748057_x_at) / RFU CD79A (11719716_a_at) / Fold change /veh CD79A (11719716_a_at) / RFU HIST1H1D (11736915_at) / Fold change /veh HIST1H1D (11736915_at) / RFU CASKIN2 (11723855_a_at) / Fold change /veh CASKIN2 (11723855_a_at) / RFU LOC730098 (11760151_x_at) / Fold change /veh LOC730098 (11760151_x_at) / RFU OR4N2 (11742367_at) / Fold change /veh OR4N2 (11742367_at) / RFU PRRT2 (11749266_a_at) / Fold change /veh PRRT2 (11749266_a_at) / RFU SNX32 (11753110_a_at) / Fold change /veh SNX32 (11753110_a_at) / RFU CDHR5 (11726645_a_at) / Fold change /veh CDHR5 (11726645_a_at) / RFU RCAN1 (11760418_a_at) / Fold change /veh RCAN1 (11760418_a_at) / RFU FAM167A (11723789_a_at) / Fold change /veh FAM167A (11723789_a_at) / RFU FAM26E (11764081_at) / Fold change /veh FAM26E (11764081_at) / RFU ISYNA1 (11749810_s_at) / Fold change /veh ISYNA1 (11749810_s_at) / RFU ACY1 (11761880_at) / Fold change /veh ACY1 (11761880_at) / RFU 11764098_at / Fold change /veh 11764098_at / RFU SAMD14 (11745864_x_at) / Fold change /veh SAMD14 (11745864_x_at) / RFU NPB (11741838_a_at) / Fold change /veh NPB (11741838_a_at) / RFU TMPRSS6 (11731388_a_at) / Fold change /veh TMPRSS6 (11731388_a_at) / RFU KRTAP10-2 (11738614_at) / Fold change /veh KRTAP10-2 (11738614_at) / RFU ARHGAP8 /// PRR5-ARHGAP8 (11727945_x_at) / Fold change /veh ARHGAP8 /// PRR5-ARHGAP8 (11727945_x_at) / RFU KRTAP5-7 /// NADSYN1 (11734609_at) / Fold change /veh KRTAP5-7 /// NADSYN1 (11734609_at) / RFU RASL12 (11751679_a_at) / Fold change /veh RASL12 (11751679_a_at) / RFU CDKN2B (11736163_a_at) / Fold change /veh CDKN2B (11736163_a_at) / RFU PRF1 (11729649_at) / Fold change /veh PRF1 (11729649_at) / RFU, ZNF638 /// ZNF638-IT1 / Fold change vs veh, ZNF638 /// ZNF638-IT1 / RFU, PANK3 / Fold change vs veh, PANK3 / RFU, SH3YL1 / Fold change vs veh, SH3YL1 / RFU, ZEB2 / Fold change vs veh, ZEB2 / RFU, NRIP1 / Fold change vs veh, NRIP1 / RFU, PTTG1IP / Fold change vs veh, PTTG1IP / RFU, CAPN2 / Fold change vs veh, CAPN2 / RFU, MED14 / Fold change vs veh, MED14 / RFU, SNORA58 / Fold change vs veh, SNORA58 / RFU, C1orf63 / Fold change vs veh, C1orf63 / RFU, LRRFIP1 / Fold change vs veh, LRRFIP1 / RFU, NDUFAF7 / Fold change vs veh, NDUFAF7 / RFU, SLC12A2 / Fold change vs veh, SLC12A2 / RFU, IBTK / Fold change vs veh, IBTK / RFU, ESF1 / Fold change vs veh, ESF1 / Fold change vs veh, TMEM50B / RFU, TAOK1 / Fold change vs veh, TAOK1 / RFU, ACBD3 / Fold change vs veh, ACBD3 / RFU, TMA16 / Fold change vs veh, TMA16 / RFU, RWDD3 / Fold change vs veh, RWDD3 / RFU, BCAT1 / Fold change vs veh, BCAT1 / RFU, EDEM3 / Fold change vs veh, EDEM3 / RFU, TMEM33 / Fold change vs veh, TMEM33 / RFU, WDR75 / Fold change vs veh, WDR75 / RFU, AHCTF1 / Fold change vs veh, AHCTF1 / RFU, TFRC / Fold change vs veh, TFRC / RFU, ZDHHC17 / Fold change vs veh, ZDHHC17 / RFU, NOM1 / Fold change vs veh, NOM1 / RFU, ARL8B / Fold change vs veh, ARL8B / RFU, ZBTB11 / Fold change vs veh, ZBTB11 / RFU, TAMM41 / Fold change vs veh, TAMM41 / RFU, KIAA1704 /// LOC100996395 / Fold change vs veh, KIAA1704 /// LOC100996395 / RFU, ING1 / Fold change vs veh, ING1 / RFU, TRMT61B / Fold change vs veh, TRMT61B / RFU, FUBP3 / Fold change vs veh, FUBP3 / RFU, TP53 / Fold change vs veh, TP53 / RFU, TNKS2 / Fold change vs veh, TNKS2 / RFU, ZFP14 / Fold change vs veh, ZFP14 / RFU, ACTR2 / Fold change vs veh, ACTR2 / RFU, PPP3R1 / Fold change vs veh, PPP3R1 / RFU, PIK3R1 / Fold change vs veh, PIK3R1 / RFU, HNRNPA1 / Fold change vs veh, HNRNPA1 / RFU, RNF170 / Fold change vs veh, RNF170 / RFU, ZNF28 / Fold change vs veh, ZNF28 / RFU, RNGTT / Fold change vs veh, RNGTT / RFU, OGT / Fold change vs veh, OGT / RFU, BRD1 / Fold change vs veh, BRD1 / RFU, MARS / Fold change vs veh, MARS / RFU, ZNF655 / Fold change vs veh, ZNF655 / RFU, FAHD1 / Fold change vs veh, FAHD1 / RFU, BDP1 / Fold change vs veh, BDP1 / RFU, LRRCC1 / Fold change vs veh, LRRCC1 / RFU, ARID1A / Fold change vs veh, ARID1A / RFU, ZNF146 / Fold change vs veh, ZNF146 / RFU, ZNF330 / Fold change vs veh, ZNF330 / RFU, GPN3 / Fold change vs veh, GPN3 / RFU, C9orf123 / Fold change vs veh, C9orf123 / RFU, N4BP2L2 / Fold change vs veh, N4BP2L2 / RFU, ARFIP1 / Fold change vs veh, ARFIP1 / RFU, FAM179B / Fold change vs veh, FAM179B / RFU, BCL10 / Fold change vs veh, BCL10 / RFU, UHRF1BP1L / Fold change vs veh, UHRF1BP1L / RFU, BET1 / Fold change vs veh, BET1 / RFU, CNOT2 / Fold change vs veh, CNOT2 / RFU, ZNF268 / Fold change vs veh, ZNF268 / Fold change vs veh, ZNF507 / RFU, DGCR2 / Fold change vs veh, DGCR2 / RFU, WDSUB1 / Fold change vs veh, WDSUB1 / Fold change vs veh, HSP90B1 /// MIR3652 / RFU, ADSS / Fold change vs veh, ADSS / RFU, GK / Fold change vs veh, GK / RFU, ZNF148 / Fold change vs veh, ZNF148 / RFU, TAF9 / Fold change vs veh, TAF9 / RFU, SLC1A5 / Fold change vs veh, SLC1A5 / RFU, SLMO2 / Fold change vs veh, SLMO2 / RFU, ABCC4 / Fold change vs veh, ABCC4 / RFU, LOC101060439 /// RAP1B / Fold change vs veh, LOC101060439 /// RAP1B / RFU, RFX7 / Fold change vs veh, RFX7 / RFU, GTPBP10 / Fold change vs veh, GTPBP10 / RFU, CNEP1R1 / Fold change vs veh, CNEP1R1 / RFU, BIVM-ERCC5 /// ERCC5 / Fold change vs veh, BIVM-ERCC5 /// ERCC5 / RFU, ILF3 / Fold change vs veh, ILF3 / RFU 11762660_at / Fold change /veh 11762660_at / RFU VCAN (11757783_s_at) / Fold change /veh VCAN (11757783_s_at) / RFU DDX43 (11728927_at) / Fold change /veh DDX43 (11728927_at) / RFU KRT8 (11758188_x_at) / Fold change /veh KRT8 (11758188_x_at) / RFU NKD1 (11759106_at) / Fold change /veh NKD1 (11759106_at) / RFU SRD5A1 (11742802_a_at) / Fold change /veh SRD5A1 (11742802_a_at) / RFU TPSAB1 /// TPSB2 (11721975_s_at) / Fold change /veh TPSAB1 /// TPSB2 (11721975_s_at) / RFU GSTM3 (11746129_a_at) / Fold change /veh GSTM3 (11746129_a_at) / RFU IL23R (11737362_x_at) / Fold change /veh IL23R (11737362_x_at) / RFU TMEM51 (11727254_a_at) / Fold change /veh TMEM51 (11727254_a_at) / RFU PIWIL2 (11732686_x_at) / Fold change /veh PIWIL2 (11732686_x_at) / RFU ORM1 (11744905_x_at) / Fold change /veh ORM1 (11744905_x_at) / RFU CCDC152 (11743942_at) / Fold change /veh CCDC152 (11743942_at) / RFU ECM1 (11717891_a_at) / Fold change /veh ECM1 (11717891_a_at) / RFU IL23R (11748794_a_at) / Fold change /veh IL23R (11748794_a_at) / RFU TNFAIP8L3 (11732012_x_at) / Fold change /veh TNFAIP8L3 (11732012_x_at) / RFU MBOAT4 (11741988_at) / Fold change /veh MBOAT4 (11741988_at) / RFU 11764193_at / Fold change /veh 11764193_at / RFU TMEM53 (11763286_at) / Fold change /veh TMEM53 (11763286_at) / RFU MAGEB2 (11727129_at) / Fold change /veh MAGEB2 (11727129_at) / RFU TMEM200A (11744735_a_at) / Fold change /veh TMEM200A (11744735_a_at) / RFU CCDC152 (11751479_a_at) / Fold change /veh CCDC152 (11751479_a_at) / RFU FAM211A (11726209_a_at) / Fold change /veh FAM211A (11726209_a_at) / RFU RGS16 (11746705_a_at) / Fold change /veh RGS16 (11746705_a_at) / RFU VCAN (11755009_s_at) / Fold change /veh VCAN (11755009_s_at) / RFU RHOB (11743442_s_at) / Fold change /veh RHOB (11743442_s_at) / RFU RGS16 (11720943_a_at) / Fold change /veh RGS16 (11720943_a_at) / RFU RGS16 (11720944_at) / Fold change /veh RGS16 (11720944_at) / RFU, VPS4B / Fold change vs veh, VPS4B / RFU, CREB1 / Fold change vs veh, CREB1 / RFU, DNAJC13 / Fold change vs veh, DNAJC13 / RFU, GNAQ / Fold change vs veh, GNAQ / RFU, CDK5R1 / Fold change vs veh, CDK5R1 / RFU, ZRANB3 / Fold change vs veh, ZRANB3 / RFU, CUL4A / Fold change vs veh, CUL4A / RFU, CCNY / Fold change vs veh, CCNY / RFU, UFL1 / Fold change vs veh, UFL1 / RFU, COG3 / Fold change vs veh, COG3 / RFU, DIAPH2 / Fold change vs veh, DIAPH2 / RFU, SKA2 / Fold change vs veh, SKA2 / RFU, AFF3 / Fold change vs veh, AFF3 / RFU, LMF1 / Fold change vs veh, LMF1 / RFU, IPO11 / Fold change vs veh, IPO11 / RFU, DFFB / Fold change vs veh, DFFB / RFU, FOXP1 / Fold change vs veh, FOXP1 / RFU, CARD8 / Fold change vs veh, CARD8 / RFU, STRN3 / Fold change vs veh, STRN3 / RFU, ADK / Fold change vs veh, ADK / RFU, RASSF2 / Fold change vs veh, RASSF2 / RFU, WIPF1 / Fold change vs veh, WIPF1 / RFU, LARP1B / Fold change vs veh, LARP1B / RFU, RASA1 / Fold change vs veh, RASA1 / RFU, RB1 / Fold change vs veh, RB1 / RFU, PPFIA1 / Fold change vs veh, PPFIA1 / RFU, MAT2A / Fold change vs veh, MAT2A / RFU, CCT5 / Fold change vs veh, CCT5 / RFU, WDR92 / Fold change vs veh, WDR92 / RFU, CUX1 / Fold change vs veh, CUX1 / RFU, TTC7A / Fold change vs veh, TTC7A / RFU, TMEM135 / Fold change vs veh, TMEM135 / RFU, DEPTOR / Fold change vs veh, DEPTOR / RFU, CPM / Fold change vs veh, CPM / RFU, DNAJB6 / Fold change vs veh, DNAJB6 / RFU, CACNA2D3 / Fold change vs veh, CACNA2D3 / RFU, DTX4 / Fold change vs veh, DTX4 / RFU, TFCP2 / Fold change vs veh, TFCP2 / RFU, GMCL1 /// GMCL1P1 / Fold change vs veh, GMCL1 /// GMCL1P1 / RFU, AEBP2 / Fold change vs veh, AEBP2 / RFU, SNHG1 /// SNORD22 /// SNORD25 /// SNORD26 /// SNORD27 /// SNORD28 /// SNORD29 /// SNORD31 / Fold change vs veh, SNHG1 /// SNORD22 /// SNORD25 /// SNORD26 /// SNORD27 /// SNORD28 /// SNORD29 /// SNORD31 / Fold change (Aza/veh), C12orf56 (ProbeSet 11735607_a_at) / Fold change (ACY-1035/veh), C12orf56 (ProbeSet 11735607_a_at) / Fold change (Aza/veh), FGFR1OP (ProbeSet 11751329_s_at) / Fold change (ACY-1035/veh), FGFR1OP (ProbeSet 11751329_s_at) / Fold change (Aza/veh), VPS36 (ProbeSet 11739960_a_at) / Fold change (ACY-1035/veh), VPS36 (ProbeSet 11739960_a_at) / RFU SYPL1 (11715823_x_at) / Fold change /veh SYPL1 (11715823_x_at) / RFU IGFBP7 (11715501_s_at) / Fold change /veh IGFBP7 (11715501_s_at) / RFU REEP3 (11722064_at) / Fold change /veh REEP3 (11722064_at) / RFU IGLL1 (11728026_x_at) / Fold change /veh IGLL1 (11728026_x_at): dose or concentration left out as unconfirmed
Conditions: MV-4-11 cells, 48 hours

Compound: Nc1ccc(-c2cccs2)cc1NC(=O)c1ccc2c(c1)cc(C1CC1)n2CCN1CCOCC1 [ACY-1035]
- RFU RCAN1 (11760418_a_at): 20.19 RFU
